Active and inactive are the calls of the source.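 The calls were made as follows: active = EC50 no more than a set limit of log units above the highest dose; inactive = the rest.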
Target: S. pyogenes SKKanGAS, kanamycin survival, BacTiterGlo, 6 h
Assay: SKKanGAS survival reduction under kanamycin, dose response, streptokinase promoter inhibitor project, SKKanGAS strain, luminescence, dose confirmation (AID 1902);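 also: lower survival reflects blocked streptokinase promoter driving kanamycin resistance gene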

Structure (SMILES)	EC50
COc1ccc(C(=O)NNC(=S)NC(=O)c2cccs2)cc1	2.2 µM
COc1ccc(N2CCN(C(=O)c3cc(C)oc3C)CC2)cc1	> 15 µM (inactive)
O=c1cc(-c2ccccc2)[nH]n1-c1nc2ccccc2s1	2.72 µM
CC1CC(C)CN(c2ncc3c(n2)CC(c2ccccc2Cl)CC3=O)C1 (configuration not stated)	4.33 µM
Cc1cc(C(C#N)c2ccc(Cl)cc2)c(Cl)cc1NC(=O)c1cc(I)cc(I)c1O (configuration not stated)	0.082 µM
Cc1cccnc1Nc1nc(-c2ccccn2)cs1	0.705 µM
CC1(c2ccccc2)CC(C)(C)N2C(=O)/C(=C3\SC(=S)NC3=O)c3cccc1c32 (configuration not stated)	0.43 µM
COc1cccc(-c2cc(C(F)(F)F)nc(N3CCC(C)CC3)n2)c1	7.06 µM
O=C1/C(=C\c2cccc(O)c2O)SC(=S)N1Cc1ccccc1	2.2 µM
COc1cc(F)ccc1CN1CCC(n2nccc2NC(=O)C2CCOC2)CC1 (configuration not stated)	> 15 µM (inactive)
O/N=C(\c1ccc(Cl)cc1Cl)c1ncc(C(F)(F)F)cc1Cl	2.74 µM
CCCCNc1c(-c2ccc(OC)c(SC3CCCCC3)c2)nc2cnccn12	3.62 µM
Cc1cc(C)c(C)c(S(=O)(=O)N2CCC(C(=O)NNC(=O)c3ccccc3O)CC2)c1C	11.8 µM
S=c1[nH]nc(-c2cc(-c3ccccc3)n[nH]2)n1/N=C/c1ccc(Cl)cc1	8.67 µM
O=c1c2c(nc3c(-c4ccc(Cl)cc4)c[nH]n13)CCCC2	4.55 µM
Cn1c(=O)c(NCCc2ccccc2)c2c3c(cccc31)C(=O)c1ccccc1-2	8.86 µM
CCCCn1c(-c2ccco2)nc2oc3ccccc3c(=O)c2c1=O	15.1 µM
COc1ccc(-c2cc3nc(-c4ccccc4)cc(N4CCCC(O)C4)n3n2)cc1 (configuration not stated)	4.3 µM
COC(=O)C1CN(C#N)N(c2ccc(Cl)cc2)C12c1ccccc1-c1ccccc12 (configuration not stated)	4.21 µM
Cc1ccc(Cn2ccc(=O)c(OCc3c(Cl)cccc3Cl)c2C)cc1	5.94 µM
CC(Oc1ccccc1)C(=O)NC1C(=O)N2C1SC(C)(C)C2C(=O)O (configuration not stated)	0.114 µM
O=C(c1cccs1)N1N=C(c2ccccc2)CC1c1ccccc1 (configuration not stated)	6.41 µM

Structure (SMILES)	EC50
COC(=O)C1N2C(=O)[C@@H](NC(=O)COc3ccccc3)[C@H]2SC1(C)C (some centres not stated)	0.377 µM
O=C(c1ccc(O)cc1)c1ccc(C(=O)c2ccc(O)cc2)cc1	5.07 µM
Cc1cc(SCC(=O)N/N=C/c2ccc(O)cc2O)c(C)cc1Br	1.93 µM
N#Cc1nc(-c2ccccc2Cl)oc1N1CCN(C(=O)c2ccco2)CC1	> 15 µM (inactive)
O=C(Nc1ccc2nc(-c3ccc4nc[nH]c4c3)[nH]c2c1)c1cccs1	15.7 µM
O=c1c2c([N+](=O)[O-])cc([N+](=O)[O-])cc2sn1Cc1ccccc1	6.62 µM
C/C(=N\NC(=O)c1ccc(Cl)c(Cl)c1)c1ccc(Br)s1	0.563 µM
O=c1c2ccccc2c(C=Nc2ccc(O)cc2)c(O)n1Cc1ccccc1	6.21 µM
c1ccc(CNc2nc(-c3ccccn3)nc3ccccc23)cc1	0.418 µM
COc1cc(OC)cc(C(=O)Nc2nnc(NC(=S)Nc3ccccc3)s2)c1	5.13 µM
COc1ccc(Cl)cc1C(Nc1cccnc1)c1ccc2cccnc2c1O (configuration not stated)	6.28 µM
O=C(Cc1cccs1)Nc1cccc(-c2nc3cc4ccccc4cc3[nH]2)c1	4.25 µM
CC(=O)Oc1c(I)cc(I)cc1C(=O)Nc1ccc(Cl)cc1	0.394 µM
CCC(C)Nc1nc(N)c([N+](=O)[O-])c(Nc2cc(OC)ccc2OC)n1 (configuration not stated)	1.95 µM
Cn1ncc2c(Nc3cccc(Cl)c3)nc(Nc3cccc(Cl)c3)nc21	2.67 µM
CC(C)CN(C(=O)COc1ccc(-c2nnco2)cc1)C1CCS(=O)(=O)C1 (configuration not stated)	> 15 µM (inactive)
CN(C)S(=O)(=O)c1ccc(C(=O)Nc2nnc(-c3ccc4c(c3)CCCC4)o2)cc1	0.144 µM
Cc1[nH]n(-c2ccccc2)c(=O)c1N=Nc1ccccc1O	0.582 µM
NS(=O)(=O)c1ccc(N/N=C2/CCCCC2C2CCCCC2)c([N+](=O)[O-])c1 (configuration not stated)	3.11 µM
COc1ccc(/C=C2\SC(=N)N(c3nccs3)C2=O)cc1OC	0.838 µM
Cc1ccc(CN2CN(S(=O)(=O)c3cccs3)c3nc4ccccc4nc32)cc1	7.74 µM
FC(F)(F)c1cccc(NC(=S)NNC(=S)Nc2cccc(C(F)(F)F)c2)c1	0.804 µM

Structure (SMILES)	EC50
COc1cc(C(=O)NC(=S)N(CCc2ccccc2)CCc2ccccc2)cc(OC)c1OC	0.328 µM
Cc1ccc(NS(=O)(=O)c2ccc(C3CCCCC3)cc2)cc1	4.32 µM
CCCCNC(=O)c1cn(CC(C)C)c(=O)c2c1c1ccccc1n2C	9.02 µM
Oc1ccc(Br)cc1/C=N/Nc1ncc(-c2ccccc2)cn1	1.7 µM
C/C(=N\NC(=O)c1ccccc1N)c1ccc(NC(=O)Cc2ccccc2)cc1	4.95 µM
COc1ccc(-n2nc(C(=O)c3cccs3)cc(-c3nc4ccccc4[nH]3)c2=N)cc1	1.2 µM
Cc1cc(C)cc(NS(=O)(=O)c2ccc(NC(=S)NC(=O)c3cccs3)cc2)c1	6.32 µM
CCCc1ccc(OCC(=O)NNC(=S)NC(=O)c2ccco2)cc1	< 0.06 µM
CC(C)c1ccc2[nH]c3c(c2c1)CCC/C3=N\NC(=O)c1ccncc1	2.43 µM
S=c1[nH]nc(-c2cc(-c3ccccc3)n[nH]2)n1/N=C/c1ccc(Br)s1	5.22 µM
Fc1ccc(-c2csc3ncnc(N4CCc5ccccc5C4)c23)cc1	2.73 µM
CC(C)COc1ccc(-c2nn(-c3ccccc3)cc2/C=C2/SC(=S)N(CC(=O)O)C2=O)cc1	2.18 µM
Clc1ccc(-c2csc(Nc3ccccc3)[n+]2Cc2ccco2)c(Cl)c1	3.35 µM
O=C(Nc1cccc(NC(=O)c2ccc([N+](=O)[O-])o2)c1)c1ccco1	6.61 µM
Oc1c(Br)cc(Br)cc1/C=N/c1nc2c(s1)CCCC2	5.86 µM
Cc1ccccc1-c1cc(-c2ccccc2O)n[nH]1	12.3 µM
COc1ccccc1N=Nc1nc(-c2ccccc2)c(-c2ccccc2)[nH]1	1.39 µM
NC(N)=N/N=C/c1ccc(OCc2ccccc2)c(OCc2ccccc2)c1	6.82 µM
Cc1csc2c(N3CCN(C(=O)Nc4ccc(Cl)c(Cl)c4)CC3)ncnc12	2.99 µM
O=[N+]([O-])c1ccc(O)c(N=Cc2sc3ccccc3c2O)c1	2.97 µM
CCCSc1cc(N2CCCC2)nc(-c2ccccc2)n1	6.8 µM
O=C(NC(=S)NNC(=O)c1cccs1)c1ccco1	6.22 µM

Structure (SMILES)	EC50
Cc1cc(C)n(C(=O)/C(C#N)=N/Nc2cc(Cl)cc(Cl)c2)n1	1.76 µM
C[C@H]1[C@H](C)CC[C@]2(C(=O)O)CC[C@]3(C)C(=CC[C@@H]4[C@@]5(C)C[C@@H](O)[C@H](O)C(C)(C)[C@@H]5CC[C@]43C)[C@H]12	2.81 µM
Cc1cccc(NC(=O)C(=O)NNC(=O)c2ccc(C(C)(C)C)cc2)c1	5.41 µM
COc1ccc(Cn2c(SCc3ccc(C)cc3)nc3cc(OC)c(OC)cc3c2=N)cc1Cl	2.65 µM
N#C/C(=C(/O)COc1ccccc1)c1nc2ccccc2s1	14.5 µM
CC(C)(C)c1ccc(C(=O)NNC(=S)NC(=O)c2cccnc2)cc1	0.249 µM
CCOc1ccc2nc(N3C(=O)/C(=C/c4ccc(Cl)cc4)NC3=S)sc2c1	1.3 µM
O=C(CNc1ccc(F)cc1)N/N=C/c1c(O)ccc2ccccc12	1.12 µM
CCCCc1nc(NCc2ccccc2)c(C#N)c2c1CCCC2	8.22 µM
S=C(NCCSCc1ccc(Cl)cc1Cl)Nc1ccccc1	7.32 µM
COc1ccccc1CNC(=O)c1ccc(-c2ccccc2Cl)o1	9.96 µM
COc1ccccc1C(=O)NNC(=S)NC(=O)c1sc2ccccc2c1Cl	< 0.06 µM
Cc1ccc(C2Oc3ccccc3C3=C2C(c2cccs2)n2ncnc2N3)cc1 (configuration not stated)	3.76 µM
COc1cccc(N=Nc2c(N)[nH]n3c(=O)cc(-c4ccccc4)nc23)c1	1.79 µM
c1ccc(Nc2nc3ccccc3[nH]2)nc1	1.46 µM
Cc1ccc(-c2cc(C(=O)Nc3ccc(S(=O)(=O)Nc4cc(C)on4)cc3)c3ccccc3n2)c(C)c1	5.67 µM
COc1ccc(CC2=CC(=O)c3ccccc3C2=O)cc1	7.96 µM
O=C(Nc1cccc(NC(=O)c2cccnc2)c1)c1ccccc1	> 15 µM (inactive)
CC1=C/C(=N\NC(=S)NCCc2ccccc2)CC(C)(C)C1	2.58 µM
Cc1nn(Cc2ccccc2Cl)c2sc(C(=O)Nc3ccccc3N3CCOCC3)cc12	2.92 µM
Cc1cccc(NC(=O)c2nc[nH]c2C(=O)N[C@@H](Cc2ccccc2)C(=O)OC(C)(C)C)c1	1.44 µM
Cc1nc(N2CCC(C)CC2)c2c(C)c(C(=O)Nc3ccccc3C(F)(F)F)sc2n1	6.04 µM

Structure (SMILES)	EC50
CCOC(=O)c1csc(NC(=O)c2ccc3c(c2)OCCO3)n1	> 15 µM (inactive)
O=C(Nc1ccc([N+](=O)[O-])cc1)Nc1nc(-c2ccc(Cl)s2)cs1	2.95 µM
COc1ccc(CCN2C(=O)c3[nH]nc(-c4ccccc4O)c3C2c2cccc(Cl)c2)cc1 (configuration not stated)	7.71 µM
CCNc1nc(Oc2c(Cl)cccc2Cl)cc(C(F)(F)F)n1	6.58 µM
C[C@@]12CCC=C[C@H]1[C@H](c1ccc3ccccc3c1Br)N(Cc1ccccc1)C2=O	3.63 µM
O=[N+]([O-])c1ccc(/C=N/Nc2nc(N3CCCCCC3)nc(N3CCCCCC3)n2)o1	0.618 µM
CC1(C(=O)OCC(=O)Nc2nc(-c3ccc(F)c(F)c3)cs2)CC1(Cl)Cl (configuration not stated)	6.72 µM
Clc1ccc(COn2c(-c3ccc(Cl)cc3)nc3ccccc32)cc1	6.12 µM
Cc1cccc(Nc2nc(N)nc(CN3CCN(c4ccccc4F)CC3)n2)c1	15.4 µM
CC[C@H]1OC(=O)[C@H](C)[C@@H](O[C@H]2C[C@@](C)(OC)[C@@H](O)[C@H](C)O2)[C@H](C)[C@@H](O[C@@H]2O[C@H](C)C[C@H](N(C)C)[C@H]2O)[C@](C)(O)C[C@@H](C)C(=O)[C@H](C)[C@@H](O)[C@]1(C)O	< 0.06 µM
N#Cc1ccc(NC(=O)Nc2ccc(Cl)cc2)cc1	6.03 µM
Cc1oc2c(c1C(=O)NCc1cccnc1)C(=O)c1ccccc1C2=O	0.882 µM
Oc1cc2ccccc2cc1-c1n[nH]c(=S)o1	11.1 µM
CC(C)C[C@H](NC(=O)c1[nH]cnc1C(=O)N[C@@H](C)C(=O)OC(C)(C)C)C(=O)OCc1ccccc1	7.06 µM
CCCC1CC(C(=O)NC(C(C)Cl)C2OC(SC)C(O)C(O)C2O)N(C)C1 (configuration not stated)	< 0.06 µM
COc1ccccc1N1CC(C(=O)Nc2nnc(SCC(=O)N3CCCC3)s2)CC1=O (configuration not stated)	> 15 µM (inactive)
CC(C)c1ccccc1OCC(=O)NC1CCCc2ccccc21 (configuration not stated)	11.7 µM
O=C(NCc1ccco1)c1cc2ccc(O)cc2oc1=O	5.85 µM
O=C(/C=C/c1ccccc1)NC(NC(=S)Nc1cccc(Cl)c1)C(Cl)(Cl)Cl (configuration not stated)	1.85 µM

Source: PubChem BioAssay AID1902 (Broad Institute, 2009)
